This is an account of results in ChEMBL document CHEMBL1140460, “Design, synthesis, and biological evaluation of triazolopiperazine-based beta-amino amides as potent, orally active dipeptidyl peptidase IV (DPP-4) inhibitors” (Bioorg Med Chem Lett, 2007).

Series [1] in a line: Plasma clearance in rat. The series is classed as ADME, organism-based.
Series [2] deals with Dipeptidyl peptidase 8 (Homo sapiens, UniProt Q6V1X1). Nature of the series: Inhibition of DPP8.
The nature of series [3]: Oral bioavailability in rat. The series is classed as ADME, organism-based. The following applies: in vivo.
Series [4] is described as follows: (§1) Half life in rat. The series is classed as ADME, organism-based. The following applies: in vivo.
Series [5] concerns the target Dipeptidyl peptidase 2 (Homo sapiens, UniProt Q9UHL4). Briefly: Inhibition of QPP.
The target in series [6] is Dipeptidyl peptidase 9 (Homo sapiens, UniProt Q86TI2). Briefly: Inhibition of DPP9.
Dipeptidyl peptidase 9, sequence (Q86TI2 whole entry): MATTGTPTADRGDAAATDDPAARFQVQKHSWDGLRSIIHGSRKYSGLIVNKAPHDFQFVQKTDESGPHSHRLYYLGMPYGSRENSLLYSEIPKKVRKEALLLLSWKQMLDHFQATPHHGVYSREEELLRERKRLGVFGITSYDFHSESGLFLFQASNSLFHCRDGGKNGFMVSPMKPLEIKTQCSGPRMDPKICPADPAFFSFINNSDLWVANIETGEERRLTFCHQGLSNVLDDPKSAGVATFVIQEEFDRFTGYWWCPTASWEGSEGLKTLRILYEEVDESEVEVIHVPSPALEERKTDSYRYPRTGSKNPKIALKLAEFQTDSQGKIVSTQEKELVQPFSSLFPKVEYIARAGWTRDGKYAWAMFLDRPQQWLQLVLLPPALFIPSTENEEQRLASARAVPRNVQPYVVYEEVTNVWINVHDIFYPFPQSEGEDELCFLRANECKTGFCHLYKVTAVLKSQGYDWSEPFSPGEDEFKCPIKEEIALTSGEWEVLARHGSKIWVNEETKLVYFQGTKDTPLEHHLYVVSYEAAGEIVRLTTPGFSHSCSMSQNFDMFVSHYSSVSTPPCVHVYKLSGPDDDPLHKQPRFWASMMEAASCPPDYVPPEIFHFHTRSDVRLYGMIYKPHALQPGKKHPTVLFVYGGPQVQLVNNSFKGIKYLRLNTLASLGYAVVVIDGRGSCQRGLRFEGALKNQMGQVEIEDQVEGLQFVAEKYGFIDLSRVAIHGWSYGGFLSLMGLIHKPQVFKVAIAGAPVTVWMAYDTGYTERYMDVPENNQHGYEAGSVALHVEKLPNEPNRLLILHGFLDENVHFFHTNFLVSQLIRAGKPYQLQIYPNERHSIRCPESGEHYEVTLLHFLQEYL
Series [7] deals with Dipeptidyl peptidase 4 (Homo sapiens, UniProt P27487).
Dipeptidyl peptidase 4, sequence (P27487 whole entry): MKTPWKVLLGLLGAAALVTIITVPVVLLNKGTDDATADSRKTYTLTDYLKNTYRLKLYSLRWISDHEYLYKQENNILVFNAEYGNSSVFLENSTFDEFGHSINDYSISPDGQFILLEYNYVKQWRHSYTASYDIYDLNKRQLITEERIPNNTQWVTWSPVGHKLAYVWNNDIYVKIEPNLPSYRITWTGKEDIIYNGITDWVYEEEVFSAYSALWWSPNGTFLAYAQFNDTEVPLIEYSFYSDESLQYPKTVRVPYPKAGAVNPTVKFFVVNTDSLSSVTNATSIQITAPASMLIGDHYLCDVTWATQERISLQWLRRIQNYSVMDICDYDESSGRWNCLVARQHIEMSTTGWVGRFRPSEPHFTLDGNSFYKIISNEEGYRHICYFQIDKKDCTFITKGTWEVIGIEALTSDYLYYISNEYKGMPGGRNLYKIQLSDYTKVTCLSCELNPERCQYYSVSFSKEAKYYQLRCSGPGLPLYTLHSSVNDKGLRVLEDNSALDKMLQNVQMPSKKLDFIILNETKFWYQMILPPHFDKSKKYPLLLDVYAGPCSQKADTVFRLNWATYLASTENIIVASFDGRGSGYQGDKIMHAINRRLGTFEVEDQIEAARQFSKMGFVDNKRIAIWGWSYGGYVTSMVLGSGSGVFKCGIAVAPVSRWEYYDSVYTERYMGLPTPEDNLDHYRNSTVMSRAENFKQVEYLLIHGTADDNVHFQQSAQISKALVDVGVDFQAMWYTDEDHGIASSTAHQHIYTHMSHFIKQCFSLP
A short description of series [8]: Oral bioavailability in dog. The series is classed as ADME, organism-based, Canis lupus familiaris. The following applies: in vivo.
Series [9] is described as follows: Half life in dog. The series is classed as ADME, organism-based, Canis lupus familiaris. The following applies: in vivo.
Series [10] is described as follows: Oral bioavailability in rhesus monkey. Particulars: in vivo. The series is classed as ADME, organism-based, Macaca mulatta.
Series [11] relates to Mus musculus. Nature of the series: Reduction of blood glucose excursion in lean mouse at 0.1 mg/kg by oral glucose tolerance test. The series is classed as functional. Also on record: scale not given: the % may be the effect or the level left.
Series [12] is described as follows: Plasma clearance in dog. The series is classed as ADME, organism-based, Canis lupus familiaris.
Series [13] concerns Mus musculus. Nature of the series: Reduction of blood glucose excursion in lean mouse at 3.0 mg/kg by oral glucose tolerance test. The arrangement: scale not given: the % may be the effect or the level left. The series is classed as functional.
Series [14] in a line: Half life in rhesus monkey. The series is classed as ADME, organism-based, Macaca mulatta. The following applies: in vivo.
The test system of series [15] is Mus musculus. Briefly: Reduction of blood glucose excursion in lean mouse at 1.0 mg/kg by oral glucose tolerance test. The series is classed as functional. Also on record: scale not given: the % may be the effect or the level left.
A short description of series [16]: Plasma clearance in rhesus monkey. The series is classed as ADME, organism-based, Macaca mulatta.
The species named for series [17] is Rattus norvegicus. Described as §1. The series is classed as ADME, organism-based. Particulars: in vivo.

Dipeptidyl peptidase 8, sequence (Q6V1X1 whole entry): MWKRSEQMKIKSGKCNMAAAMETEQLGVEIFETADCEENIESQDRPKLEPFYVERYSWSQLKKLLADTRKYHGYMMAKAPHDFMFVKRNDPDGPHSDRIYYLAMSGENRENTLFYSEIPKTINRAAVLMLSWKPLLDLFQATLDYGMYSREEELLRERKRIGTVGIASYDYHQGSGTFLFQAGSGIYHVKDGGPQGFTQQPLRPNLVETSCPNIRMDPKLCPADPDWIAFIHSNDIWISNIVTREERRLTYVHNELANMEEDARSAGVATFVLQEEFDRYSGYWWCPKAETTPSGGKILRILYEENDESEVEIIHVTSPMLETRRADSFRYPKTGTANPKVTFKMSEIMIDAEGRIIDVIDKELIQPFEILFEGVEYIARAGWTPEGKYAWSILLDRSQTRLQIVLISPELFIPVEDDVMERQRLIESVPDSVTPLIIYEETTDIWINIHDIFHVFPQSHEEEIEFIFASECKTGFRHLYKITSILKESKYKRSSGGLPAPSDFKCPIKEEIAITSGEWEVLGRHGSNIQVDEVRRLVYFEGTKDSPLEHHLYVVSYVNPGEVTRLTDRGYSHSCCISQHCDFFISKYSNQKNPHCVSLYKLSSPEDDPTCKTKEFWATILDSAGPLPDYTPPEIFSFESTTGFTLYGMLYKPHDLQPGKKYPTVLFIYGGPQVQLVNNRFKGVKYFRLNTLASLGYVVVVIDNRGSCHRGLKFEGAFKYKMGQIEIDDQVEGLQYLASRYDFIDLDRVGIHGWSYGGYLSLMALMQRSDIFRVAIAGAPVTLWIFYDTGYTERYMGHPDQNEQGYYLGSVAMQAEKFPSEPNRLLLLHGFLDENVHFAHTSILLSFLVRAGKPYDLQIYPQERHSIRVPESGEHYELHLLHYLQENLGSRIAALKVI

The term clearance denotes a measure of how efficiently the substance is removed, as volume per time. In general, IC50 refers to the concentration at which inhibition is half-maximal. In general, bioavailability refers to dose-corrected exposure relative to a reference, in per cent. For orientation: half-life means the time in which the quantity being followed falls by half. Consider `N[C@@H](CC(=O)N1CCn2nc(C(F)(F)F)nc2C1Cn1ccnc1)Cc1cc(F)c(F)cc1F` (some centres not stated), for which the clearance in series [1] turned out to be 97 mL/min/kg. Besides, the figures for the IC50 in [2] and in series [5] were over 100 µM and 26 µM, respectively. The same compound returned a bioavailability in series [3] of 7.1%. Besides, in [4], the half-life was 9 h.

`N[C@@H](CC(=O)N1CCn2nc(C(F)(F)F)nc2C1)Cc1cc(F)c(F)cc1F` had an IC50 in series [6] of over 100 µM. Besides, the clearance in series [1] was determined as 60 mL/min/kg. Further, in series [3], the bioavailability came to 100%. In addition, the half-life in [4] was 3.6 h.

Take `N[C@@H](CC(=O)N1CCn2nc(C(F)(F)F)nc2[C@@H]1C(F)C1CC1)Cc1cc(F)c(F)cc1F` (stereo in doubt; 34c): the IC50 is 0.018 µM in series [7], over 100 µM in series [2] and 5.77 µM in series [5].

As for `C[C@H]1c2nc(C(F)(F)F)nn2CCN1C(=O)C[C@H](N)Cc1cc(F)c(F)cc1F`, the half-inhibitory concentration (IC50) in [6] is over 100 µM; in [2], over 100 µM; in [5], 72 µM.

For `N[C@@H](CC(=O)N1CCn2nc(C(F)(F)F)nc2[C@@H]1C(F)C1CC1)Cc1cc(F)c(F)cc1F` (stereo in doubt; 34d), the 50% inhibitory concentration (IC50) was 0.011 µM in series [7], over 100 µM in series [2] and 4.1 µM in [5].

As for `N[C@@H](CC(=O)N1CCn2nc(C(F)(F)F)nc2C1Cn1cncn1)Cc1cc(F)c(F)cc1F` (some centres not stated), the half-inhibitory concentration (IC50) in series [6] is over 100 µM; in [7] it was 0.005 µM; in [2], over 100 µM; in series [5] it was 49 µM. In [1], this compound yielded a clearance of 129 mL/min/kg. For the same compound, the bioavailability in series [3] stood at 13%. Moreover, in series [4], the half-life is 2.8 h.

For `N[C@@H](CC(=O)N1CCn2nc(C3CC3)nc2C1)Cc1cc(F)c(F)cc1F`, the IC50 in series [6], in series [2] and in series [5] was over 100 µM in each case.

Take `N[C@@H](CC(=O)N1CCn2nc(C(F)(F)F)nc2[C@@H]1C(O)C1CC1)Cc1cc(F)c(F)cc1F` (some centres not stated) [listing 1 of 2 here]: the IC50 in series [6] is over 100 µM. The compound further returned a clearance in [1] of 97 mL/min/kg. In series [3], this compound had a bioavailability of 63%. Further, the half-life in series [4] is 3.9 h.

Consider `C[C@@H]1c2nc(C(F)(F)F)nn2CCN1C(=O)C[C@H](N)Cc1cc(F)c(F)cc1F`, for which the 50% inhibitory concentration (IC50) is over 100 µM in [6], over 100 µM in series [2] and 25 µM in [5]. In addition, the figures for the bioavailability in series [8], in [10] and in [3] were 67%, 65% and 74%, respectively. For the same compound, the clearance in [1] was 68 mL/min/kg; in series [12], 1 mL/min/kg; in [16], 16 mL/min/kg. In addition, the half-life in series [9] is 26 h; in series [14] it was 7.7 h; in series [4], 4 h. In addition, the Activity stood at 14% in series [11], 44% in series [13] and 39% in series [15].

With `N[C@@H](CC(=O)N1CCn2nc(C(F)(F)F)nc2[C@@H]1C(O)C1CC1)Cc1cc(F)c(F)cc1F` (some centres not stated) [listing 2 of 2 here], the IC50 in series [6] was over 100 µM. In [1], this compound displayed a clearance of 91 mL/min/kg. This compound also had a bioavailability in [3] of 51%. The half-life in series [4] is 5.1 h.

Consider `N[C@@H](CC(=O)N1CCn2ncnc2C1)Cc1cc(F)c(F)cc1F`, for which the IC50 in series [6] was over 100 µM; in [7] it was 0.1 µM; in series [2] it was over 100 µM; in series [5], over 100 µM.

For the compound `N[C@@H](CC(=O)N1CCn2nc(C(F)(F)F)nc2[C@H]1Cn1cncn1)Cc1cc(F)c(F)cc1F`, the 50% inhibitory concentration (IC50) in series [6] was over 100 µM; in series [7], 0.002 µM; in series [2] it was over 100 µM; in series [5] it was 22 µM.

Regarding `N[C@@H](CC(=O)N1CCn2nc(C(F)(F)F)nc2C1Cn1cccn1)Cc1cc(F)c(F)cc1F` (some centres not stated), the IC50 is over 100 µM in [6], over 100 µM in series [2] and 9.6 µM in series [5]. Moreover, the clearance in [1] is 142 mL/min/kg. Besides, the bioavailability in series [3] came to 62%. In [4], this compound showed a half-life of 2.3 h.

In the case of `N[C@@H](CC(=O)N1CCn2nc(-c3ccccc3)nc2C1)Cc1cc(F)c(F)cc1F`, in [6], the 50% inhibitory concentration (IC50) is over 100 µM.

As for `N[C@@H](CC(=O)N1CCn2c(nnc2C(F)(F)F)C1)Cc1cc(F)c(F)cc1F` [SITAGLIPTIN], the bioavailability worked out at 100% in [8] and 68% in series [10]. In addition, the clearance in series [1] was 60 mL/min/kg; in series [12], 6 mL/min/kg; in series [16], 28 mL/min/kg. The half-life in [9] is 4.9 h; in series [14], 3.7 h. Also, the t1/2 in series [17] stood at 1.7 h.

Consider `N[C@@H](CC(=O)N1CCn2nc(C(F)(F)F)nc2[C@H]1Cc1ccc(F)cc1)Cc1cc(F)c(F)cc1F`, for which, in series [1], the clearance was 76 mL/min/kg. In series [3], this compound had a bioavailability of 32%. The compound further gave a half-life in series [4] of 2.7 h.
